# Source: publication PMC7234998, “Quantification of Colistin in Plasma by Liquid Chromatography-Tandem Mass Spectrometry: Application to a Pharmacokinetic Study” (Scientific Reports, 2020)
# Entries after “also recorded” stand apart in the source; their conditions may differ. Read-outs that look alike come from different tables or passages of the source. Positions of bridges follow the written chain, without caps; N, C: chain ends. Non-standard residues stand in square brackets, D forms with d. Residues, ends and D or L forms follow the SMILES beside them. *: point of attachment. Heptanoyl(6-Me) = CC(C)CCCCC(=O)*; X1 = CC[C@H](C)CCCCC(=O)*; Dab = NCC[C@H](N)C(=O)O
# Key:
# [1] = in vivo; details: male, Sprague Dawley, rat, iv, 15 mg/kg
# Description: (§1) To 100 μl rat plasma sample, 5 μl of 500 μg/ml IS was added and followed by addition of 400 μl of 50:50 (v/v) methanol-TCA (10%). The samples were vortex-mixed for 1 min, rota-mixed for 10 min at 40 rpm and then centrifuged at 12,000 rpm for 10 min. Following centrifugation, 400 µl of the supernatant was collected and re-extracted with solid phase extraction (SPE) using SPE (Oasis HLB 1 cc, 30 mg) cartridges. First, the cartridges were conditioned with 500 μl of methanol then 500 μl of water. After that, 400 μl of the supernatant was transferred and then washed with 500 μl of water. The tubes were changed and then the samples were eluted with 150 μl of methanol: water: formic acid (80:19:1%, v/v/v) solution. The elution step was repeated twice, and then 250 μl of the solution was transferred to the low volume inserts and 20 μl of this solution was injected into the LC-MS system.
# (§2) Male Sprague Dawley® (MSD) rats (21 weeks ± 3 days of age) with a body weight of 450–550 g [supplied by the Animal Resource Center (ARC), Health Sciences Center (HSC), Kuwait University] were used to estimate the pharmacokinetic profile of colistin. The animals (n = 8) were housed in 12 h/12 h light/dark cycle. […] All the animals were subjected to left jugular vein cannulation, IV drug administration, and subsequent blood sampling. All surgical procedures were carried out under strict aseptic conditions. In addition, all surgical instruments and materials were autoclaved, all solutions were sterile and the surgical procedure was performed with the aid of surgical microscope (Leica wild M690). Animal body temperatures were maintained around 37.6 °C (rectal) by placing the animals on an electronic heating pad throughout the surgical procedure as well as the post-surgical recovery period. About 350 µl of rat blood sample was collected from each animal. From this sample, 50 µl of blood sample was transferred to a capillary tube, sealed with the sealant clay at one end and centrifuged to calculate the Packed Cell Volume (PCV); i.e., Hematocrit. The remaining rat blood sample (300 µl) was centrifuged at 9000 X g for 10 min and aliquots of 100 µl of plasma sample was collected and stored at −70 °C pending analysis.
# (§3) Colistin was quantified in the biological samples by the present LC-MS/MS method and then the pharmacokinetic parameters (t1/2, CL, Vd, AUC) were estimated by non-compartmental method employing Kinetica® software, version 5.1 (Thermo Fisher Scientific, Waltham, USA).
# [2] = cited from earlier work
# From the text: Following the validation of the present analytical method, the method was applied to estimate the pharmacokinetic profile of colistin in experimental rats. Choosing the animal species to perform the pharmacokinetic study was based on the similarity of colistin pharmacokinetic profile between animal species and humans. […] The species that has the closest pharmacokinetic profile to humans are rats[43]–[45]. […] This is because of a distribution phase that occurs before the decline in the colistin concentration. This finding is in agreement with previous reports[43],[44],[49]. In the present study, we observed that colistin concentration declined rapidly over 180–240 min which is consistent with earlier findings[45],[49]. […] In the present study, the Vd of colistin was 2.45 ± 1.30 L/kg in ...
# [3] = Autosampler stability of processed colistin rat plasma samples at 4 °C
# Description: (§4) Colistin sulfate was prepared by dissolving 5.5 mg of the powder in 5 ml water to make a stock solution of 1 mg/ml of colistin. PMB sulfate solution of 1 mg/ml was also prepared by dissolving 5.8 mg of PMB sulfate powder in 5 ml water. Both solutions were stored at −70 °C. Calibration standards and quality controls were prepared by spiking different amounts of colistin sulfate stock solution in plasma. Aliquots of colistin sulfate were further diluted to provide standard concentrations of 0.5, 1, 2, 5, 10, 15, and 20 μg/mL (equivalent to: 78, 156, 312, 780, 1560, 2340 and 3120 ng/ml of colistin A and 353, 706, 1412, 3350, 7060, 10590 and 14120 ng/ml of colistin B) whereas, the concentrations of 1.5, 3.5, 7.5 and 17.5 μg/mL (which contained 234, 546, 1170 and 2730 ng/ml of colistin A and 1059, 2471, 5295 and 12355 ng/ml of colistin B) were considered as quality controls. The calibration standards and quality controls were aliquoted (150 μL) into 0.5 ml Eppendorf tubes and stored at −70 °C pending analysis.
# as §1
# (§5) Various types of stability tests including freeze-thaw stability and long-term stability were assessed. The freeze-thaw stability test was performed by removing the four QC samples out of the storage temperature (−70 °C) and keeping them at room temperature (25 °C) until thawing and then aliquots of the samples were analyzed. After that, the samples were again returned back for freezing in the same storage conditions for 12 to 24 h. The freeze-thaw cycles were repeated five times and 4 replicates of the analytes were assayed. In addition, a long-term stability test was performed to ensure that the stability of the samples for a time that exceeds the interval between the first sample collection and the last sample analysis. Four aliquots of low, medium and high concentrations (QC) were kept for 20 days in the same temperature used to store samples regularly at the lab (−70 °C) then analyzed and compared to the nominal concentration of freshly prepared QC samples. Moreover, the stability in the autosampler (4 °C) was assessed by keeping the processed samples under this condition and assayed periodically at different times for up to 24 hours. In addition, benchtop stability test was performed by keeping the samples at room temperature (25 °C) for six hours and analyzing them during this time. The mean value results of stability tests were calculated and compared to the nominal concentrations.
# [4] = Pharmacokinetic study of colistin in rats after IV colistin sulfate, plasma LC-MS/MS, non-compartmental analysis; details: male, rat, 15 mg/kg, SD
# Description: as §1, §2, §3
# [5] = Benchtop stability of colistin in rat plasma samples at room temperature; details: rat plasma, stored for 6 hours at room temperature (25 °C), LC-MS/MS
# Description: as §4, §1, §5
# [6] = Freeze-thaw stability of colistin in rat plasma QC samples; details: five freeze-thaw cycles, −70 °C to room temperature
# Description: as §4, §1, §5
# [7] = cited from earlier work; remark: listed apart in the source
# Description: However, colistin sulphate has been reported to be well absorbed after an oral administration in infants. […] The standards and quality control samples concentrations were selected based on the therapeutic range of colistin. The expected colistin serum levels according to the antimicrobial reference laboratory assay service are 5–15 mg/L and 2–4 mg/L for the peak and tough concentrations, respectively. […] Choosing the animal species to perform the pharmacokinetic study was based on the similarity of colistin pharmacokinetic profile between animal species and humans. […] The species that has the closest pharmacokinetic profile to humans are rats[43]–[45].
# [8] = Long-term stability of colistin in rat plasma QC samples at −70 °C; details: rat plasma, 20 days, LC-MS/MS
# Description: as §4, §1, §5
smiles,measurement,setting,value
"CC(C)CCCCC(=O)N[C@@H](CCN)C(=O)N[C@H](C(=O)N[C@@H](CCN)C(=O)N[C@H]1CCNC(=O)[C@H]([C@@H](C)O)NC(=O)[C@H](CCN)NC(=O)[C@H](CCN)NC(=O)[C@H](CC(C)C)NC(=O)[C@@H](CC(C)C)NC(=O)[C@H](CCN)NC1=O)[C@@H](C)O [Colistin B, colistin B] ({Heptanoyl(6-Me)}-[Dab]T[Dab][Dab][Dab][dL]L[Dab][Dab]T; lactam 4-C)",level at 0.5 h,[1],2640 ng/mL
same,CL of the individual components,"[2]; rat, in vivo",3.05 ± 0.62 mL/min/kg
same,t1/2 of the major components,"[2]; rat, in vivo",1.52 ± 0.342 h
CC[C@H](C)CCCCC(=O)N[C@@H](CCN)C(=O)N[C@H](C(=O)N[C@@H](CCN)C(=O)N[C@H]1CCNC(=O)[C@H]([C@@H](C)O)NC(=O)[C@H](CCN)NC(=O)[C@H](CCN)NC(=O)[C@H](CC(C)C)NC(=O)[C@@H](CC(C)C)NC(=O)[C@H](CCN)NC1=O)[C@@H](C)O [colistin] (X1-[Dab]T[Dab][Dab][Dab][dL]L[Dab][Dab]T; lactam 4-C),deviation of result at each level from nominal concentration in the autosampler,"[3]; autosampler environment, 4 °C",≤ 15%
same,autosampler stability (in words),"[3]; processed samples, autosampler 4 °C, up to 24 hours, LC-MS/MS",stable; also recorded: acceptable
same,clearance,[4]; Sprague Dawley (MSD),25.5 ± 10.6 mL/min/kg
same,AUC(0-inf),[4]; Sprague Dawley,10500 ng·h/mL
same,Vd,[4]; Sprague Dawley,2.45 ± 1.29 L/kg
same,half-life,[4]; Sprague Dawley,1.07 ± 0.605 h
same,t1/2,"[2]; rats, another study",0.928 ± 0.322 h
same,t1/2,"[2]; rats, dose ranging study, dose 15 mg/kg",0.54 ± 0.0833 h
same,Vd,"[2]; rats, earlier report",0.50 ± 0.06 L/kg
same,AUC0-∞,"[2]; rats, mean ± S.D., other investigators, SD",2600 ± 470 ng·h/mL
same,total body clearance (CL),"[2]; rats, reported by other investigators",11.7 ± 1.8 mL/min/kg
same,CLR,[2]; rats,5.2 ± 0.4 mL/min/kg
same,Vd,[2]; rats,0.496 ± 0.06 L/kg
same,t1/2,[2]; rats,1.24 ± 0.22 h
same,benchtop (room temperature) stability (in words),[5],in-stability
same,benchtop (room temperature) stability (in words),[5]; listed as Colistin,not stable
same,deviation of resulting concentrations from nominal after freeze-thaw,[6]; plasma samples,≤ 15%
same,freeze-thaw stability (in words),"[6]; rat plasma, LC-MS/MS",stable; also recorded: acceptable
same,minimum concentration,"[7]; Markou and colleagues, steady state",1.03 ± 0.44 mg/L
same,maximum steady state concentration,[7]; Markou and colleagues,2.93 ± 1.24 mg/L
same,elimination half-life,"[7]; colistin, eliminated extra-renally",3 h
same,Vd,[7]; humans,12.4 L
same,t1/2,[7]; humans,3 h
same,long-term stability (in words),[8],stable; also recorded: acceptable
